Experimental data: patent US9109001B2, “3′,5′-cyclic phosphoramidate prodrugs for HCV infection” (priority 2012, dated 2015)

Legend:
[1] = Stability in simulated intestinal fluid; type: in vitro ADME; settings: 100 μM, 2 hours at 37° C.; percent of peak area at time zero
Method: (§1) Stability in Simulated Gastric and Intestinal Fluids: Simulated gastric and intestinal fluids containing pepsin and pancreatin respectively were prepared according to the U.S. Pharmacopoeia USP291 procedure (www.pharmacopeia.cn/v29240/usp29nf24s0_ris1s126.html). Test compound (final concentration 100 μM) was incubated in duplicate in the appropriate fluid for 2 hours at 37° C. The samples were quenched with 200 μl cold acetonitrile, vortexed for 30 seconds and then centrifuged at 16,100 g for 10 min. The supernatants were analyzed by HPLC on a C-18 column with UV detection at 252 nm. The time 0 samples were prepared by adding SGF or SIF fluid to the quenching solvent followed by the test compound. Stability of the compound was determined by peak area the test compound after incubation and calculated as percent of the peak area observed at time zero.

[2] = Stability in human intestinal microsomes; type: in vitro ADME; settings: 10 μM, 1.0 mg/mL protein, NADPH, 60 min; percent unchanged
Method: (§2) Stability in Liver and Intestinal Subcellular Fractions: Stability of test compounds were determined in subcellular fractions (microsomes and S9) of human liver and intestine in duplicate for each matrix. Pooled liver and intestinal microsomal, intestinal and liver S9 proteins (1.0 mg/mL), suspended in incubation buffer (100 mM potassium phosphate, pH 7.4, 5 mM MgCl2, and 0.1 mM EDTA), were preincubated for 5 min at 37° C. with 10 μM of a test compound from a 10 mM stock solution in DMSO (final DMSO concentration was 0.1%); the reaction was initiated by the addition of NADPH (3 mM final concentration). At specific times (0 and 60 min), 0.1 mL samples were taken and the reaction terminated by the addition of 4 volumes of stop solution (acetonitrile with 500 ng/mL carbutamide as an internal standard). The samples were vortexed for 30 sec and then centrifuged at 16,000 g for 10 min. 100 μL of supernatants were transferred to 96 deep-well plates preloaded with 100 μL distilled water and analyzed after mixing by LC-MS/MS. The MS peak area ratio of the test compound versus the internal standard was calculated and percent unchanged test compound over 60 minutes was calculated using this ratio.

[3] = Stability in human intestinal S9 (HIS9); type: in vitro ADME; settings: 10 μM, 1.0 mg/mL protein, NADPH, 60 min; percent unchanged
Method: as §2

[4] = Plasma and liver pharmacokinetics following a single oral dose in CD-1 mice; type: in vivo; settings: CD-1 male mice; for Ms Liver 2′-MeGTP AUC (pmol · hr/g at 1 μmol/kg): single oral dose 25 mg/kg in PEG 200, liver 2′-MeGTP; for Ms Plasma 2′-MeG AUC (pmol · hr/mL at 1 μmol/kg) / Ms Plasma 2′-MeG Cmax (pmol/mL at 1 μmol/kg): single oral dose 25 mg/kg in PEG 200, plasma 2′-MeG
Method: Plasma samples were analyzed for 2′-methylguanosine (2′-MeG) by LC-MS/MS. The internal standard (IS) was 2′-MeG-D3. For protein precipitation and extraction, each plasma sample (50 μL) was treated with 500 μL of 0.2% formic acid in acetonitrile and 20 μL of the internal standard working solution. After vortexing and centrifugation, 500 μL of the sample extracts were transferred to a new plate, dried under N2 at ˜28° C. and reconstituted with 75 μL of 0.2% FA in water. The extracts were chromatographed on an Aquasil C18 column using a gradient system of 0.2% formic acid in water and acetonitrile. The analytes were detected and quantified by tandem mass spectrometry in positive ion mode on an MDS Sciex API5000 equipped with a Turbo Ionspray® interface. The calibration range was 0.500 (LLOQ) to 200 ng/mL in mouse plasma. The corresponding range for molar units is 1.68 to 673 pmol/mL.
Liver samples were analyzed for the active species 2′-methylguanosine triphosphate (2′-MeGTP) by LC-MS/MS. […] Internal standard solution was added to the homogenate followed by neutralization with 20% ammonium hydroxide solution and addition of 500 μL 1% formic acid. The tissue samples were extracted by weak anion exchange solid phase extraction (SPE). Post extraction, the eluates were evaporated under nitrogen, followed by reconstitution before injection onto the LC-MS/MS system. […] The calibration range was 10 to 10000 pmol/mL in mouse liver homogenate (50 to 50000 pmol/g of mouse liver).

fresh human hepatocytes = assay: Release of active metabolite in fresh human hepatocytes; type: in vitro ADME; settings: 10 μM
Method: Assay for the Release of Active Metabolite in Primary Hepatocytes: Plates of fresh human and mouse hepatocytes were obtained on ice. The medium was removed and replaced with hepatocyte culture medium (William's E supplemented with penicillin-streptomycin, 1% L-glutamine, 1% insulin-transferrin-selenium and 0.1 μM Dexamethasone (Invitrogen) or with Invitro GRO HI medium complemented with Torpedo antibiotics (Celsis)). Cells were left overnight in an incubator at 37° C. to acclimatize to culture and the medium.
Hepatocyte incubations were conducted at a final volume of 0.5 mL hepatocyte culture medium/well (0.8 million cells/well for human and 0.5 million cells/well for mouse; 12 well plate no overlay, collagen coat). Culture medium from overnight incubation of cells was removed and replaced with fresh medium, pre-warmed to 37° C., containing 10 μM of test compound from a stock solution in DMSO (final DMSO concentration was 0.1%). At each specific time point, incubation medium was removed and cell monolayers were carefully washed two times with ice-cold PBS. Following the last wash, all PBS was carefully removed and 1.0 mL of extraction solution (ice-cold 70% methanol/30% water) added. Cells were scraped off and suspended in the extraction solution, transferred to 2 mL polypropylene microfuge tubes and intracellular contents extracted overnight at −20° C.
After the overnight treatment the cellular extracts were prepared by centrifugation at 16,000×g for 10 min to remove cellular debris. The remaining sample was then dried using a refrigerated centrivap concentrator. Dry extracts were reconstituted in 1000 μL of HPLC-grade water and centrifuged at 16,000×g for 10 min. Aliquots (100 μL each) of the supernatant were transferred into a 96 well plate and internal standard (4 ng/mL final concentration) was added as the internal standard (IS) for LC-MS/MS analysis.
The incubation time points were 6, 24 and 48 hours for human hepatocytes and 1, 4, 8, 12 and 24 hours for mouse hepatocytes.

[5] = Stability in human liver S9 fraction; type: in vitro ADME; settings: 10 μM, 1.0 mg/mL protein, NADPH, 60 min; percent unchanged
Method: as §2

[6] = Stability in fresh human whole blood; type: in vitro ADME; settings: 0.5 μM, percent unchanged test compound
Method: Stability in Fresh Whole Blood: Stability of test compounds were determined in fresh human whole blood with K2EDTA as the anticoagulant (stored refrigerated at 2-8° C. and used within 7 days of receipt). The experiment was conducted with three replicates for each time point. Whole blood, pre-incubated at 37° C. for 10-15 minutes, was fortified with a solution of test compound for a final concentration of 0.5 μM and mixed for 30 sec. At intervals (0, 0.5, 1 and 2 hr), three 50-μL aliquots were combined with 200 μL (each) of an ice-cold solution of the internal standard (carbutamide 500 ng/mL in acetonitrile). The samples were vortexed for 30 sec and then centrifuged at 16,100 g for 5 min. The supernatant was analyzed by LC-MS/MS. The MS peak area ratio of the test compound versus the internal standard was calculated and percent unchanged test compound was calculated for each time point using this ratio.

[7] = Stability in simulated gastric fluid; type: in vitro ADME; settings: 100 μM, 2 hours at 37° C.; percent of peak area at time zero
Method: as §1

Row | Structure (SMILES) | Stability SIF [1] | Stability HIM (1 hr) [2] | Stability HIS9 (1 hr) [3] | Ms Liver 2′-MeGTP AUC (pmol · hr/g at 1 μmol/kg) [4] | Ms Plasma 2′-MeG AUC (pmol · hr/mL at 1 μmol/kg) [4] | Ms Plasma 2′-MeG Cmax (pmol/mL at 1 μmol/kg) [4] | FHH TP AUC (pmol · hr/mill cells) (fresh human hepatocytes) | FHH TP Cmax (pmol/mill cells) (fresh human hepatocytes) | FHH TP (24 hr) (fresh human hepatocytes; 24 hr) | Stability HLS9 (1 hr) [5] | Stability WB_Human (37° C.; 2 hr) [6] | Stability SGF [7] | FHH TP (48 hr) (fresh human hepatocytes; 48 hr)
1 | CCOc1nc(N)nc2c1ncn2[C@@H]1O[C@@H]2COP(=O)(N[C@@H](C)C(=O)OC(C)C)O[C@H]2[C@@]1(C)F (single isomer, unassigned) [Compound 1 Diastereomer 1] | 83% | 70% | 84% | 2400 pmol · hr/g at 1 μmol/kg | 110 pmol · hr/mL at 1 μmol/kg | 14 pmol/mL at 1 μmol/kg | 9842 pmol · hr/mill cells | 687 pmol/mill cells | BLD^a | 51% | 87% | 87% | 
2 | CCOc1nc(N)nc2c1ncn2[C@@H]1O[C@@H]2COP(=O)(N[C@@H](C)C(=O)OC(C)C)O[C@H]2[C@@]1(C)F (single isomer, unassigned) [Compound 1 Diastereomer 2] | 2% | 98% | 96% | 810 pmol · hr/g at 1 μmol/kg | 92 pmol · hr/mL at 1 μmol/kg | 9.8 pmol/mL at 1 μmol/kg | 5774 pmol · hr/mill cells | 309 pmol/mill cells |  | 66% | 67% | 83% | BLD^a
